{"source": "patent US6451820B1", "about": "“Substituted 1-(4-aminophenly)triazoles and their use as anti-inflammatory agents” (Boehringer Ingelheim Pharmaceuticals, Inc., priority 2000, dated 2002)", "tested_on": "IL-2 promoter/enhancer", "test": "IL-2 promoter assay (luciferase reporter in J.1F/C6 Jurkat cells)", "type": "cell-based", "details": "Homo sapiens", "source_text": "The IL-2 promoter assay measures transcriptional activation of a luciferase reporter gene which has been placed under control of the IL-2 promoter/enhancer. All the known regulatory features of the IL-2 gene are contained within a ˜300 bp sequence immediately upstream of the open reading frame. The region −328 to +35 relative to the transcription start site of the IL-2 gene is obtained by […] of human genomic DNA and is subcloned into the promoterless luciferase reporter vector pGL2-Basic (Promega). The resulting construct, pIL2P-luc, and a vector containing a neomycin resistance gene, pcDNA/Neo (Invitrogen), are linearized and stably transfected into Jurkat cells (a human T cell line) by electroporation.\nFor screening compounds, the cells are pelleted by centrifugation, washed once with PBS, resuspended in RPMI (phenol red-free) containing 5% FBS, and dispensed into 96-well, white microtiter plates (Packard) at 50,000 cells/well. The cells are pre-incubated with compounds (1 μg/ml) for 15 min prior to addition of ionomycin (1 μg/ml) and PMA (10 ng/ml) in a final volume of 100 μl. Following a 5 hr incubation at 37° C. in a humidified incubator, 100 μl of Luc-Lite lysis buffer/luciferase assay buffer (Promega) is added and luminescence measured using a Packard TopCount scintillation counter/luminometer.", "key": {"[1]": {"details": "J.1F/C6 Jurkat cells stimulated with ionomycin and PMA, luciferase reporter, read-out: IC50"}}, "note": "Like-named read-outs stand apart in the source and are kept apart here.", "data": [{"smiles": "C=CC[C@@H]1/C=C(\\C)C[C@H](C)C[C@H](OC)[C@H]2O[C@@](O)(C(=O)C(=O)N3CCCC[C@H]3C(=O)O[C@H](/C(C)=C/[C@@H]3CC[C@@H](O)[C@H](OC)C3)[C@H](C)[C@@H](O)CC1=O)[C@H](C)C[C@@H]2OC", "note": "[FK506, reference compound]", "values": [{"measurement": "IC50", "setting": "J.1F/C6 Jurkat cells treated with ionomycin and PMA, cell line validation, read-out: IC50, inhibition of luciferase activity", "result": 0.0003, "unit": "µM"}]}, {"smiles": "CSc1nc(-c2ccncc2)nn1-c1ccc(NC(=O)c2cccnc2)cc1", "note": "[Example 1]", "values": [{"measurement": "IC50", "setting": "[1]", "result": "< 10", "unit": "µM"}]}, {"smiles": "CSc1nc(-c2ccncc2)nn1-c1ccc(NCc2sccc2C)cc1", "note": "[Example 2, (3-Methylthien-2-ylmethyl)-[4-(5-methylthio-3-pyridin-4-yl-1H-1,2,4-triazol-1-yl)phenyl]amine]", "values": [{"measurement": "IC50", "setting": "[1]", "result": "< 10", "unit": "µM"}]}]}
